#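 96-well plates; 48 h exposure; 5 concentrations. Endpoints by linear interpolation between flanking doses. Not reached: highest tested concentration assigned. GI50 = concentration required for 50% inhibition of growth. The concentration for full growth arrest is given as TGI.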
# Legend:
# Assay in all cases: NCI tumour cell line growth inhibition, 48 h
# HCT-116 colon = tested on: HCT-116 colon
# EKVX NSCLC = tested on: EKVX NSCLC
# K-562 leukemia = tested on: K-562 leukemia
# HT29 colon = tested on: HT29 colon
# HCT-15 colon = tested on: HCT-15 colon
# SK-MEL-2 melanoma = tested on: SK-MEL-2 melanoma
# MOLT-4 leukemia = tested on: MOLT-4 leukemia
# SW-620 colon = tested on: SW-620 colon
# SF-268 CNS = tested on: SF-268 CNS
# OVCAR-3 ovarian = tested on: OVCAR-3 ovarian
# SF-539 CNS = tested on: SF-539 CNS
# UACC-257 melanoma = tested on: UACC-257 melanoma
# CAKI-1 renal = tested on: CAKI-1 renal
# M14 melanoma = tested on: M14 melanoma
# HOP-62 NSCLC = tested on: HOP-62 NSCLC
# TK-10 renal = tested on: TK-10 renal
# SNB-19 CNS = tested on: SNB-19 CNS
# LOX IMVI melanoma = tested on: LOX IMVI melanoma
# ACHN renal = tested on: ACHN renal
# SF-295 CNS = tested on: SF-295 CNS
# PC-3 prostate = tested on: PC-3 prostate
# T-47D breast = tested on: T-47D breast
# OVCAR-8 ovarian = tested on: OVCAR-8 ovarian
# OVCAR-5 ovarian = tested on: OVCAR-5 ovarian
# 786-0 renal = tested on: 786-0 renal
# NCI-H23 lung = tested on: NCI-H23 lung
# MDA-MB-435 = tested on: MDA-MB-435
# SNB-75 CNS = tested on: SNB-75 CNS
# MCF7 breast = tested on: MCF7 breast
# CCRF-CEM leukemia = tested on: CCRF-CEM leukemia
# HS 578T breast = tested on: HS 578T breast
# HL-60(TB) leukemia = tested on: HL-60(TB) leukemia
# DU-145 prostate = tested on: DU-145 prostate
# OVCAR-4 ovarian = tested on: OVCAR-4 ovarian
# U251 CNS = tested on: U251 CNS
# MDA-MB-231 breast = tested on: MDA-MB-231 breast
# NCI-H522 lung = tested on: NCI-H522 lung
# SN12C renal = tested on: SN12C renal
# NCI-H460 lung = tested on: NCI-H460 lung
# A498 renal = tested on: A498 renal
# UO-31 renal = tested on: UO-31 renal
# KM12 colon = tested on: KM12 colon
# NCI/ADR-RES ovarian = tested on: NCI/ADR-RES ovarian
# SR leukemia = tested on: SR leukemia
# SK-MEL-5 melanoma = tested on: SK-MEL-5 melanoma
# SK-OV-3 ovarian = tested on: SK-OV-3 ovarian
# UACC-62 melanoma = tested on: UACC-62 melanoma
# IGROV1 ovarian = tested on: IGROV1 ovarian
# A549 NSCLC = tested on: A549 NSCLC
# COLO 205 colon = tested on: COLO 205 colon
# HOP-92 NSCLC = tested on: HOP-92 NSCLC
# BT-549 breast = tested on: BT-549 breast
# RPMI-8226 leukemia = tested on: RPMI-8226 leukemia
# NCI-H226 lung = tested on: NCI-H226 lung
# SK-MEL-28 melanoma = tested on: SK-MEL-28 melanoma
# RXF 393 renal = tested on: RXF 393 renal
# HCC-2998 colon = tested on: HCC-2998 colon
smiles,measurement,setting,value
OC[C@H]1O[C@@H]2O[C@@](COCc3ccccc3)([C@H](OCc3ccccc3)[C@H]2O)[C@@H]1OCc1ccccc1,TGI,HCT-116 colon,30.1 µM
same,TGI,EKVX NSCLC,28 µM
same,TGI,K-562 leukemia,25.2 µM
same,TGI,HT29 colon,17.3 µM
same,TGI,HCT-15 colon,36.1 µM
same,TGI,SK-MEL-2 melanoma,32 µM
same,TGI,MOLT-4 leukemia,21.9 µM
same,TGI,SW-620 colon,38.6 µM
same,TGI,SF-268 CNS,32.3 µM
same,TGI,OVCAR-3 ovarian,27.7 µM
same,TGI,SF-539 CNS,32.9 µM
same,TGI,UACC-257 melanoma,32.2 µM
same,TGI,CAKI-1 renal,29.8 µM
same,TGI,M14 melanoma,32.9 µM
same,TGI,HOP-62 NSCLC,32.6 µM
same,TGI,TK-10 renal,33.3 µM
same,TGI,SNB-19 CNS,32.4 µM
same,TGI,LOX IMVI melanoma,32.2 µM
same,TGI,ACHN renal,31.1 µM
same,TGI,SF-295 CNS,28.8 µM
same,TGI,PC-3 prostate,28 µM
same,TGI,T-47D breast,33 µM
same,TGI,OVCAR-8 ovarian,29.1 µM
same,TGI,OVCAR-5 ovarian,31.3 µM
same,TGI,786-0 renal,30.7 µM
same,TGI,NCI-H23 lung,34.1 µM
same,TGI,MDA-MB-435,31.8 µM
same,TGI,SNB-75 CNS,29.7 µM
same,TGI,MCF7 breast,38.8 µM
same,TGI,CCRF-CEM leukemia,35.4 µM
same,TGI,HS 578T breast,31.7 µM
same,TGI,HL-60(TB) leukemia,38.2 µM
same,TGI,DU-145 prostate,30.1 µM
same,TGI,OVCAR-4 ovarian,10.8 µM
same,TGI,U251 CNS,29.5 µM
same,TGI,MDA-MB-231 breast,29.3 µM
same,TGI,NCI-H522 lung,31.6 µM
same,TGI,SN12C renal,29.2 µM
same,TGI,NCI-H460 lung,34.2 µM
same,TGI,A498 renal,32.1 µM
same,TGI,UO-31 renal,29.4 µM
same,TGI,KM12 colon,32.1 µM
same,TGI,NCI/ADR-RES ovarian,36.1 µM
same,TGI,SR leukemia,5.83 µM
same,TGI,SK-MEL-5 melanoma,29.2 µM
same,TGI,SK-OV-3 ovarian,27.9 µM
same,TGI,UACC-62 melanoma,27.7 µM
same,TGI,IGROV1 ovarian,27 µM
same,TGI,A549 NSCLC,29.3 µM
same,TGI,COLO 205 colon,35 µM
same,TGI,HOP-92 NSCLC,28.1 µM
same,TGI,BT-549 breast,37.2 µM
same,TGI,RPMI-8226 leukemia,32.4 µM
C=C1CC(C#N)(C#N)[C@H]2C3CCCC3C[C@@H]12 (stereo partly drawn) (tested in a mixture with another compound),TGI,HCT-116 colon,19.4 µM
same,TGI,EKVX NSCLC,98.4 µM
same,TGI,K-562 leukemia,82.8 µM
same,TGI,HT29 colon,28.1 µM
same,TGI,HCT-15 colon,32.8 µM
same,TGI,MOLT-4 leukemia,43.5 µM
same,TGI,SW-620 colon,29.7 µM
same,TGI,SF-268 CNS,61.1 µM
same,TGI,OVCAR-3 ovarian,38.9 µM
same,TGI,SF-539 CNS,50.2 µM
same,TGI,NCI-H226 lung,61.9 µM
same,TGI,M14 melanoma,29.2 µM
same,TGI,TK-10 renal,> 100 µM
same,TGI,SNB-19 CNS,67.4 µM
same,TGI,ACHN renal,61.1 µM
same,TGI,SF-295 CNS,39.4 µM
same,TGI,PC-3 prostate,97.4 µM
same,TGI,T-47D breast,> 100 µM
same,TGI,OVCAR-8 ovarian,33 µM
same,TGI,SK-MEL-28 melanoma,42.4 µM
same,TGI,786-0 renal,36.9 µM
same,TGI,MDA-MB-435,44.5 µM
same,TGI,MCF7 breast,29.8 µM
same,TGI,HS 578T breast,> 100 µM
same,TGI,HL-60(TB) leukemia,54.2 µM
same,TGI,DU-145 prostate,> 100 µM
same,TGI,U251 CNS,40.4 µM
same,TGI,RXF 393 renal,41.7 µM
same,TGI,MDA-MB-231 breast,55.2 µM
same,TGI,SN12C renal,30.5 µM
same,TGI,A498 renal,48 µM
same,TGI,UO-31 renal,35.3 µM
same,TGI,KM12 colon,43.3 µM
same,TGI,NCI/ADR-RES ovarian,48.2 µM
same,TGI,SR leukemia,53.6 µM
same,TGI,SK-MEL-5 melanoma,> 100 µM
same,TGI,SK-OV-3 ovarian,> 100 µM
same,TGI,UACC-62 melanoma,> 100 µM
same,TGI,IGROV1 ovarian,> 100 µM
same,TGI,HOP-92 NSCLC,35 µM
same,TGI,BT-549 breast,56.8 µM
CC(=O)Nc1ccc(-c2csc(Nc3cccc(-c4csc(C)n4)c3)n2)cc1,GI50,HCC-2998 colon,0.00657 µM
same,TGI,HCC-2998 colon,8.98 µM
same,GI50,HCT-116 colon,0.697 µM
same,TGI,HCT-116 colon,> 26.7 µM
same,GI50,EKVX NSCLC,4.99 µM
same,TGI,EKVX NSCLC,22.2 µM
same,GI50,K-562 leukemia,0.385 µM
same,TGI,K-562 leukemia,9.55 µM
same,GI50,HT29 colon,2.38 µM
same,TGI,HT29 colon,> 50 µM
same,GI50,HCT-15 colon,0.289 µM
same,TGI,HCT-15 colon,> 27.4 µM
same,GI50,SK-MEL-2 melanoma,8.03 µM
same,TGI,SK-MEL-2 melanoma,> 27.3 µM
same,TGI,MOLT-4 leukemia,> 50 µM
same,GI50,SW-620 colon,3.51 µM
same,TGI,SW-620 colon,49 µM
same,GI50,SF-268 CNS,4.38 µM
same,TGI,SF-268 CNS,> 27.1 µM
same,GI50,OVCAR-3 ovarian,0.238 µM
same,GI50,SF-539 CNS,1.1 µM
same,TGI,SF-539 CNS,6.83 µM
same,GI50,UACC-257 melanoma,4.63 µM
same,TGI,UACC-257 melanoma,21.5 µM
same,GI50,CAKI-1 renal,1.61 µM
same,TGI,CAKI-1 renal,8.75 µM
same,GI50,NCI-H226 lung,4.92 µM
same,TGI,NCI-H226 lung,16.8 µM
same,GI50,M14 melanoma,0.743 µM
same,TGI,M14 melanoma,8.81 µM
same,GI50,HOP-62 NSCLC,3.02 µM
same,TGI,HOP-62 NSCLC,15 µM
same,GI50,TK-10 renal,6.03 µM
same,TGI,TK-10 renal,> 50 µM
same,GI50,SNB-19 CNS,1.6 µM
same,TGI,SNB-19 CNS,> 50 µM
same,GI50,LOX IMVI melanoma,0.375 µM
same,TGI,LOX IMVI melanoma,10.1 µM
same,GI50,ACHN renal,1.87 µM
same,TGI,ACHN renal,22.6 µM
same,GI50,SF-295 CNS,0.907 µM
same,TGI,SF-295 CNS,> 13.2 µM
same,GI50,PC-3 prostate,1.67 µM
same,TGI,PC-3 prostate,> 19.9 µM
same,GI50,T-47D breast,2.65 µM
same,TGI,T-47D breast,> 43.2 µM
same,GI50,OVCAR-8 ovarian,2.44 µM
same,TGI,OVCAR-8 ovarian,20.8 µM
same,GI50,SK-MEL-28 melanoma,7.32 µM
same,TGI,SK-MEL-28 melanoma,> 37.3 µM
same,GI50,OVCAR-5 ovarian,10 µM
same,TGI,OVCAR-5 ovarian,> 36.8 µM
same,GI50,786-0 renal,2.03 µM
same,TGI,786-0 renal,18.2 µM
same,GI50,NCI-H23 lung,3.31 µM
same,TGI,NCI-H23 lung,> 27.7 µM
same,GI50,MDA-MB-435,0.23 µM
same,GI50,MCF7 breast,0.68 µM
same,TGI,MCF7 breast,> 50 µM
same,GI50,CCRF-CEM leukemia,> 50 µM
same,TGI,CCRF-CEM leukemia,> 50 µM
same,GI50,HS 578T breast,3.83 µM
same,TGI,HS 578T breast,> 30.4 µM
same,GI50,HL-60(TB) leukemia,0.609 µM
same,GI50,DU-145 prostate,3.85 µM
same,TGI,DU-145 prostate,22.7 µM
same,GI50,U251 CNS,1.13 µM
same,TGI,U251 CNS,9.69 µM
same,GI50,RXF 393 renal,2.01 µM
same,TGI,RXF 393 renal,> 12.9 µM
same,GI50,MDA-MB-231 breast,1.28 µM
same,TGI,MDA-MB-231 breast,5.07 µM
same,GI50,NCI-H522 lung,7.72 µM
same,TGI,NCI-H522 lung,> 28 µM
same,GI50,SN12C renal,1.36 µM
same,TGI,SN12C renal,6.78 µM
same,GI50,NCI-H460 lung,1 µM
same,TGI,NCI-H460 lung,> 50 µM
same,GI50,A498 renal,6.92 µM
same,TGI,A498 renal,> 29.1 µM
same,GI50,UO-31 renal,6.73 µM
same,TGI,UO-31 renal,22.8 µM
same,GI50,KM12 colon,0.404 µM
same,TGI,KM12 colon,6.07 µM
same,GI50,NCI/ADR-RES ovarian,0.642 µM
same,TGI,NCI/ADR-RES ovarian,6.84 µM
same,GI50,SR leukemia,0.787 µM
same,TGI,SR leukemia,> 50 µM
same,GI50,SK-MEL-5 melanoma,0.26 µM
same,TGI,SK-MEL-5 melanoma,8.62 µM
same,GI50,SK-OV-3 ovarian,2.38 µM
same,TGI,SK-OV-3 ovarian,19.1 µM
same,GI50,UACC-62 melanoma,0.139 µM
same,TGI,UACC-62 melanoma,1.51 µM
same,GI50,IGROV1 ovarian,3.79 µM
same,TGI,IGROV1 ovarian,> 30.9 µM
same,GI50,A549 NSCLC,1.21 µM
same,TGI,A549 NSCLC,18.9 µM
same,GI50,COLO 205 colon,1 µM
same,TGI,COLO 205 colon,> 50 µM
same,TGI,HOP-92 NSCLC,> 23.1 µM
same,GI50,BT-549 breast,8.34 µM
same,TGI,BT-549 breast,44.6 µM
same,GI50,RPMI-8226 leukemia,0.789 µM

# — PubChem BioAssay (NCI)
